Data published in patent US5153180A, “Fluorinated nucleosides and process for treating retrovirus infections therewith” (priority 1990, dated 1992).
Where two headings read alike, the source gives them in different places.

Key:
[1] = molecular target: T1, thymidine-phosphorylase from human spleen (Homo sapiens, UniProt P19971); assay: Phosphorolytic cleavage by thymidine-phosphorylase; type: in vitro ADME; settings: for metabolised at 3 h, 1000 µM: 1 mM, within 3 hours, read-out: extent of cleavage by thymidine-phosphorylase
T1 construct: thymidine-phosphorylase from human spleen; from tissue; host or cells: human spleen
T1 sequence (P19971 11-482): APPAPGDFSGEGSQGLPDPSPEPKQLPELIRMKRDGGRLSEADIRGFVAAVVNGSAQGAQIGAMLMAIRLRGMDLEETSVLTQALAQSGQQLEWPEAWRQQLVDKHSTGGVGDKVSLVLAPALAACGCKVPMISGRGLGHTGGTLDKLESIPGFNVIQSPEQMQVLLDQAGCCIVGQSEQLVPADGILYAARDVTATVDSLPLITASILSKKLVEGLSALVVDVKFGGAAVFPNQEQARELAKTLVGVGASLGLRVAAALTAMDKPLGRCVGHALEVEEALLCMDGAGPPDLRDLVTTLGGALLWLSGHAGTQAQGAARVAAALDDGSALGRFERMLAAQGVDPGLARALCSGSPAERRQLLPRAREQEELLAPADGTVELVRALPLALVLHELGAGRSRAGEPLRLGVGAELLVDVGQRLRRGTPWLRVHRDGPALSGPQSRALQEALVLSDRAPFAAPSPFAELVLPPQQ
Description: Therefore FTdR, FddBrUrd and FddFUrd were investigated for their ability to be cleaved by thymidine-phosphorylase from human spleen.

HIV = assay: Inhibition of the cytopathic effect of HIV on MT-4 cells; type: cell-based; settings: MT-4 cells, 6 days of incubation; for EC50: Human immunodeficiency virus 1, MT4, 144 h, read-out: 50% antiviral dose (ED50)
Protocol: (§1) Under in vitro conditions immortalized T-lymphocytes can be killed within few days by the cytopathic effect of HIV. […] For this purpose about 20,000 MT-4 cells (Harada et al. Science 229, 563 (1985)) Were infected with HIV (titer: 0.04 m.o.i.) and incubated in the presence or absence of varying concentrations of compounds according to formula I, with 10% fetal calf serum (FCS) in 200 μl RPMI medium. After 6 days of incubation the viable cells were counted that were excluded from trypan blue staining.

in vitro = settings: human, mt-4 cells
Protocol: as §1

[2] = molecular target: T2, HIV-associated reverse transcriptase (HIV-RT) (Human immunodeficiency virus type 1 group M subtype B, UniProt P04585); assay: Inhibition of HIV-associated reverse transcriptase (polymerization of artificial templates); type: biochemical; set-up: efficacy against HIV-associated reverse transcriptase: dose or concentration left out as unconfirmed; settings: for IC50: read-out: ID50 HIV-RT
T2 construct: HIV-associated reverse transcriptase (HIV-RT)
Description: At first the triphosphates of some compounds according to formula I were investigated for their ability to inhibit the polymerization of artificial templates (such as polyAoligodT and polyColigodG) catalyzed by HIV-associated reverse transcriptase (HIV-RT) according to the method described by A. D. Hoffman et al., Virology 147, 326, 1985. […] FdTTP, FdUTP and FdGTP are among the strongest inhibitors found so far for HIV-RT. In comparison the ID50 for 3'-azidothymidinetriphosphate was estimated under our conditions to be about […].

[3] = molecular target: T3, cellular DNA polymerase α (Bos taurus, UniProt A0AAA9TD94); assay: Effect on cellular DNA polymerase α; type: biochemical; settings: enzyme purified from calf thymus; read-out: ID50 cellular polymerase α
T3 construct: purified from calf thymus; from tissue; host or cells: calf thymus
T3 sequence (A0AAA9TD94 1-1441): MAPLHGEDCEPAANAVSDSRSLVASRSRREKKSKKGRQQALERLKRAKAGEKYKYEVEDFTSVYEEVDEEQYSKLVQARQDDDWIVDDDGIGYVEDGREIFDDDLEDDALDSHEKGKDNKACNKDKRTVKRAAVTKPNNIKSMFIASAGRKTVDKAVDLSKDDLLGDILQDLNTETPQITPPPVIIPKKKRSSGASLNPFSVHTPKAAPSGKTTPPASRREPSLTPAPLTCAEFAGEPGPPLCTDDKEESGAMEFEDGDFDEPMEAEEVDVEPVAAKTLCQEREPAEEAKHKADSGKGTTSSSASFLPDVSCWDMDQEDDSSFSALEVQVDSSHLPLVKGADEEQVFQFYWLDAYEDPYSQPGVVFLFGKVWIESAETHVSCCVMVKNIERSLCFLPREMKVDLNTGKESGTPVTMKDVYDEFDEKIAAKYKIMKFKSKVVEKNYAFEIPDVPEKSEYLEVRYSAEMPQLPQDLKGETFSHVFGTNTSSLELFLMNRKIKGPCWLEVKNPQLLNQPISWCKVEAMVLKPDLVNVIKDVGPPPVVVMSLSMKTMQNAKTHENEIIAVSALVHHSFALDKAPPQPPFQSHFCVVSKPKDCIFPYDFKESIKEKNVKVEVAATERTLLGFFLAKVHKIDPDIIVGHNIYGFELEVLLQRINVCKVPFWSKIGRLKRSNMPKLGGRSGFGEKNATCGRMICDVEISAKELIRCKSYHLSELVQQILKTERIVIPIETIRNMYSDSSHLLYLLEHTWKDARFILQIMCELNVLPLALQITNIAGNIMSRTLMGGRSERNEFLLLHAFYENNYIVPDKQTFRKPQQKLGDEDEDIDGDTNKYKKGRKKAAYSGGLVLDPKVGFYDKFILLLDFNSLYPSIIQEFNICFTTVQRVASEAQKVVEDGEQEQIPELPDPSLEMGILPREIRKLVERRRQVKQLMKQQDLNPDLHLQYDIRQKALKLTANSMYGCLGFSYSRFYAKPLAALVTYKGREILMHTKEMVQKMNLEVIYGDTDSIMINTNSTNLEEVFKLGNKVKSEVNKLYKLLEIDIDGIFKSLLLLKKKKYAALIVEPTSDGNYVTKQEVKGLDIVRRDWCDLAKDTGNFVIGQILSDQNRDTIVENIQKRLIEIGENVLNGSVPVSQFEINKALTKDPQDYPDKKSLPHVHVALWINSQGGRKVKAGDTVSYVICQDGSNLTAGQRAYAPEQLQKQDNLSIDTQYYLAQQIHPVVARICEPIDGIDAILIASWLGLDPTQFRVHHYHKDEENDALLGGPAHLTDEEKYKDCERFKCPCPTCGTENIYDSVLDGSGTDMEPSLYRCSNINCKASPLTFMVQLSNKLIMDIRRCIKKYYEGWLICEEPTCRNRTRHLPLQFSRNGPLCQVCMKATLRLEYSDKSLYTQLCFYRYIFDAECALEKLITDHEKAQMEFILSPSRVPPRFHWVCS
Description: (§2) The strong inhibiting effect of 3'-fluoro-substituted deoxynucleotides against HIV-reverse transcriptase can be utilized therapeutically only if the cellular DNA polymerases, especially the DNA polymerase α which is required for the replication of the cellular DNA, remain substantially unaffected. […] The ID50 values for the DNA polymerase β responsible for cellular DNA repair vary between 1,8-15 μm. Both enzymes cellular DNA polymerase α and β were purified from calf thymus and tested according to the method of E. Matthes et al., Biomed. Biochim. Acta 44. K63 (1985).

[4] = molecular target: T4, cellular DNA polymerase β (Bos taurus, UniProt Q27958); assay: Effect on cellular DNA polymerase β; type: biochemical; settings: enzyme purified from calf thymus; read-out: ID50 cellular polymerase β
T4 construct: purified from calf thymus; from tissue; host or cells: calf thymus
Description: as §2

[5] = concentration required for 50% inhibition

EC50 (HIV)	SMILES	CC50 at 144 h (in vitro)	also measured
125 µM	Cc1cn([C@H]2C[C@H](F)[C@@H](CO)O2)c(=O)nc1N [FddMCyt, 2'-3'-dideoxy-3'-fluoromethylcytidine]	125 µM	
> 100 µM	O=c1[nH]c(=O)n([C@@H]2O[C@H](CO)[C@@H](F)[C@@H]2O)cc1Br [FaraBrU, 3'-deoxy-3'-fluoroarabinosyl-5-bromouracil]	> 100 µM	
5 µM	Nc1nc2c(ncn2[C@H]2C[C@H](F)[C@@H](CO)O2)c(=O)[nH]1 [FddGuo, 2'-3'-dideoxy-3'-fluoroguanosine]	250 µM	
25 µM	Nc1ccn([C@H]2C[C@H](F)[C@@H](CO)O2)c(=O)n1 [FddCyt, 2'-3'-dideoxy-3'-fluorocytidine]	62 µM	
> 500 µM	O=c1ccn([C@@H]2O[C@H](CO)[C@@H](F)[C@@H]2O)c(=O)[nH]1 [FaraU, 3'-deoxy-3'-fluoroarabinosyluracil]	> 500 µM	
> 500 µM	CCc1cn([C@H]2C[C@H](F)[C@@H](CO)O2)c(=O)[nH]c1=O [FddEtUrd, 2'-3'-dideoxy-3'-fluoro-5-ethyluridine]	> 500 µM	
> 500 µM	O=c1[nH]c(=O)n([C@H]2C[C@H](F)[C@@H](CO)O2)cc1CO [FddHMUrd, 2'-3'-dideoxy-3'-fluoro-5-hydroxymethyluridine]	> 500 µM	
> 100 µM	Nc1ccn([C@@H]2O[C@H](CO)[C@@H](F)[C@@H]2O)c(=O)n1 [FaraC, 3'-deoxy-3'-fluoroarabinosylcytosine]	> 100 µM	

More lines, now with the values behind:

SMILES	EC50 (HIV)	CC50 at 144 h (in vitro)	also measured
O=c1[nH]c(=O)n([C@H]2C[C@H](F)[C@@H](CO)O2)cc1Br [FddBrUrd, 2'-3'-dideoxy-3'-fluoro-5-bromouridine]	5 µM	190 µM	metabolised at 3 h, 1000 µM [1]: 3 to 8%
N#Cc1cn([C@H]2C[C@H](F)[C@@H](CO)O2)c(=O)[nH]c1=O [FddCNUrd, 2'-3'-dideoxy-3'-fluoro-5-cyanouridine]		> 500 µM	50% antiviral dose (ED50) (HIV): not detectable
O=c1[nH]c(=O)n([C@H]2C[C@H](F)[C@@H](CO)O2)cc1F [FddFUrd, 2'-3'-dideoxy-3'-fluoro-5-fluorouridine]		> 200 µM	metabolised at 3 h, 1000 µM [1]: 3 to 8%; 50% antiviral dose (ED50) (HIV): not detectable
Cc1cn([C@H]2C[C@H](O)[C@@H](CO)O2)c(=O)[nH]c1=O [thymidine, reference compound]			metabolised at 2 h [1]: 90%
O=c1[nH]c(=O)n([C@H]2C[C@H](F)[C@@H](COP(=O)(O)OP(=O)(O)OP(=O)(O)O)O2)cc1F [Compound F5FdUTP, 2'-3'-dideoxy-3'-fluoro-5-fluorouridine-5'-triphosphate]			IC50 [2, 5]: 0.45 µM; IC50 [3]: > 200 µM; IC50 [4]: 15 µM
Cc1cn([C@H]2C[C@H](Cl)[C@@H](COP(=O)(O)OP(=O)(O)OP(=O)(O)O)O2)c(=O)[nH]c1=O [3'-chloro-2',3'-dideoxythymidine triphosphate, reference compound]			efficacy against HIV-associated reverse transcriptase [2]: completely ineffective
Nc1nc2c(ncn2[C@H]2C[C@H](F)[C@@H](COP(=O)(O)OP(=O)(O)OP(=O)(O)O)O2)c(=O)[nH]1 [FdGTP, 2'-3'-dideoxy-3'-fluoroguanosine-5'-triphosphate]			IC50 [2, 5]: 0.05 µM; IC50 [3]: > 200 µM; IC50 [4]: 1.8 µM
CCc1cn([C@H]2C[C@H](F)[C@@H](COP(=O)(O)OP(=O)(O)OP(=O)(O)O)O2)c(=O)[nH]c1=O [Compound F5EtdUTP, 2'-3'-dideoxy-3'-fluoro-5-ethyluridine-5'-triphphosphate]			IC50 [2, 5]: 7.5 µM; IC50 [3]: 10 µM; IC50 [4]: 4 µM
Cc1cn([C@H]2C[C@H](N=[N+]=[N-])[C@@H](CO[P@](=O)(O)O[P@](=O)(O)OP(=O)(O)O)O2)c(=O)[nH]c1=O [3'-azidothymidinetriphosphate, reference compound]			IC50 ([2]; estimated under our conditions): ~50 µM
O=c1ccn([C@H]2C[C@H](F)[C@@H](COP(=O)(O)OP(=O)(O)OP(=O)(O)O)O2)c(=O)[nH]1 [FdUTP, 2'-3'-dideoxy-3'-fluorouridine-5'-triphosphate]			IC50 [2, 5]: 0.07 µM; IC50 [3]: > 200 µM; IC50 [4]: 3 µM
Nc1ncnc2c1ncn2[C@H]1C[C@H](F)[C@@H](CO)O1 [FddAdo, 2'-3'-dideoxy-3'-fluoroadenosine]	> 100 µM	75 µM	
Nc1nc(N)c2ncn([C@H]3C[C@H](F)[C@@H](CO)O3)c2n1 [FddDAPR, 2'-3'-dideoxy-3'-fluoro-2,6-diaminopurineriboside]	6 µM	480 µM	
